Like-named read-outs stand apart in the source and are kept apart here. Where a SMILES comes first, the peptide text is derived from it. Bridges are numbered along the chain shown (N, C = ends). [ ]: non-standard residue; d: D form. The star is where a group is joined. Hexanoyl(4S-Me) = CC[C@H](C)CCC(=O)*; d(aIle) = CC[C@H](C)[C@@H](N)C(=O)O; d(aThr) = C[C@@H](O)[C@@H](N)C(=O)O; Orn = NCCC[C@H](N)C(=O)O; Dhb = C/C=C(\N)C(=O)O
What was measured:
Type in all cases: cell-based, human
[1] = tested on: HT-29; experiment: SRB colorimetric assay of cell growth and viability, HT-29; settings: 48 hours exposure; for GI50: read-out: GI50 HT-29; for CC50: read-out: LC50 HT-29
[2] = tested on: IGROV-1; experiment: SRB colorimetric assay of cell growth and viability, IGROV-1; settings: 48 hours exposure
[3] = tested on: LNCaP; experiment: SRB colorimetric assay of cell growth and viability, LNCaP; settings: 48 hours exposure
Excerpt: The finality of this assay is to interrupt the growth of a “in vitro” tumor cell culture by means a continued exhibition of the cells to the sample to be testing.
This form of the assay employs 96 well cell culture microplates of 9 mm diameter (Faircloth, 1988; Mosmann, 1983). Most of the cell lines are obtained from American Type Culture Collection (ATCC) derived from different human cancer types.
Cells are maintained in RPMI 1640 10% FBS, supplemented with 0.1 g/l penicillin and 0.1 g/l streptomycin sulfate and then incubated at 37° C., 5% CO2 and 98% humidity. For the experiments, cells were harvested from subconfluent cultures using trypsin and resuspended in fresh medium before plating.
Cells are seeded in 96 well microtiter plates, at 5×10^3 cells per well in aliquots of 195 μL medium, and they are allowed to attach to the plate surface by growing in drug free medium for 18 hours. Afterward, samples are added in aliquots of 5 μL in a ranging from 10 to 10^−8 μg/mL, dissolved in DMSO:EtOH:PBS (0.5:0.5:99). After 48 hours exposure, the antitumor effect are measured by the SRB methodology: cells are fixed by adding 50 μL of cold 50% (wt/vol) trichloroacetic acid (TCA) and incubating for 60 minutes at 4° C. Plates are washed with deionized water and dried. One hundred μL of SRB solution (0.4% wt/vol in 1% acetic acid) is added to each microtiter well and incubated for 10 minutes at room temperature. Unbound SRB is removed by washing with 1% acetic acid. Plates are air dried and bound stain is solubilized with Tris buffer. Optical densities are read on a automated spectrophotometric plate reader at a single wavelength of 490 nm.
The values for mean+/− SD of data from triplicate wells are calculated. Some parameters for cellular responses can be calculated: GI=growth inhibition, TGI=total growth inhibition (cytostatic effect) and LC=cell killing (cytotoxic effect).

[4] = tested on: A-549; experiment: SRB colorimetric assay of cell growth and viability, A-549; settings: 48 hours exposure; for GI50: read-out: GI50 A-549; for CC50: read-out: LC50 A-549
[5] = tested on: K-562; experiment: SRB colorimetric assay of cell growth and viability, K-562; settings: 48 hours exposure; for CC50: read-out: LC50 K-562
[6] = tested on: SK-MEL-28; experiment: SRB colorimetric assay of cell growth and viability, SK-MEL-28; settings: 48 hours exposure; for CC50: read-out: LC50 MEL-28
[7] = tested on: LoVo-Dox; experiment: SRB colorimetric assay of cell growth and viability, LoVo-Dox; settings: 48 hours exposure; for CC50: read-out: LC50 LOVO-DOX
Outline: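 Optical density at 490 nm of solubilized SRB, from triplicate wells, yields GI, TGI and LC values. Before staining, cells are fixed for 60 minutes at 4° C in cold TCA after a 48-hour exposure.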

[8] = tested on: DU-145; experiment: SRB colorimetric assay of cell growth and viability, DU-145; settings: 48 hours exposure
[9] = tested on: IGROV-ET; experiment: SRB colorimetric assay of cell growth and viability, IGROV-ET; settings: 48 hours exposure; for CC50: read-out: LC50 IGROV-ET
[10] = tested on: LoVo; experiment: SRB colorimetric assay of cell growth and viability, LoVo; settings: 48 hours exposure; for CC50: read-out: LC50 LOVO
[11] = tested on: HeLa-APL; experiment: SRB colorimetric assay of cell growth and viability, HeLa-APL; settings: 48 hours exposure; for CC50: read-out: LC50 HELA-APL
[12] = tested on: PANC-1; experiment: SRB colorimetric assay of cell growth and viability, PANC-1; settings: 48 hours exposure; for CC50: read-out: LC50 PANC-1
[13] = tested on: HeLa; experiment: SRB colorimetric assay of cell growth and viability, HeLa; settings: 48 hours exposure; for CC50: read-out: LC50 HELA
[14] = tested on: SK-BR-3; experiment: SRB colorimetric assay of cell growth and viability, SK-BR-3; settings: 48 hours exposure

With `C/C=C1\NC(=O)[C@H](Cc2ccccc2)NC(=O)[C@@H](C(C)C)NC(=O)[C@@H]([C@@H](C)CC)NC(=O)[C@H](NC(=O)[C@H](NC(=O)[C@H](CCCN)NC(=O)[C@H]2CCCN2C(=O)[C@H](NC(=O)[C@@H](NC(=O)[C@@H](NC(=O)[C@H](NC(=O)CCCC(C)C)[C@H](C)O)[C@@H](C)O)C(C)C)C(C)C)[C@@H](C)CC)[C@@H](C)OC(=O)[C@H](C(C)C)NC1=O` [Compound 41, [D-Thr^13]-KF] the “TGI HT-29” value [1] was 1.57E−06 Molar, the GI50 [1] was 0.73 µM and the CC50 [1] was 3.41 µM. The GI50 [2] was 0.777 µM, the LC50 (concentration causing 50% net cell killing) [2] was 3.13 µM and the “TGI IGROV” value [2] was 1.56E−06 Molar. The “TGI LN-caP” value [3] was 6.76E−06 Molar, the GI50 ([3]; read-out: GI50 LN-caP) was 2.28 µM and the CC50 ([3]; read-out: LC50 LN-caP) was no less than 6.76 µM. The “TGI A-549” value [4] was 2.72E−06 Molar, the GI50 [4] was 1.63 µM and the CC50 [4] was 4.53 µM. The GI50 [5] was 5.85 µM, the “TGI K-562” value [5] was 6.76E−06 Molar and the CC50 [5] was no less than 6.76 µM. The GI50 [6] was 1.23 µM, the “TGI MEL-28” value [6] was 2.20E−06 Molar and the CC50 [6] was 3.96 µM. The GI50 [7] was 0.126 µM, the “TGI LOVO-DOX” value [7] was 2.53E−07 Molar and the CC50 [7] was 0.509 µM. The GI50 [8] was 1 µM, the LC50 (concentration causing 50% net cell kill) [8] was 3.73 µM and the “TGI DU-145” value [8] was 1.93E−06 Molar. The GI50 [9] was 0.515 µM, the “TGI IGROV-ET” value [9] was 1.35E−06 Molar and the CC50 [9] was 3.16 µM. For the same compound, the GI50 [10] was 0.155 µM, the “TGI LOVO” value [10] was 7.23E−07 Molar and the CC50 [10] was 2.9 µM. The GI50 [11] was 1.24 µM, the “TGI HELA-APL” value [11] was 2.15E−06 Molar and the CC50 [11] was 3.74 µM. The GI50 [12] was 2.69 µM, the “TGI PANC-1” value [12] was 6.76E−06 Molar and the CC50 [12] was no less than 6.76 µM. For the same compound, the GI50 [13] was 1.02 µM, the “TGI HELA” value [13] was 2.00E−06 Molar and the CC50 [13] was 3.94 µM.
`C/C=C1\NC(=O)[C@H](Cc2ccc(F)c(F)c2)NC(=O)[C@@H](C(C)C)NC(=O)[C@@H]([C@@H](C)CC)NC(=O)[C@H](NC(=O)[C@H](NC(=O)[C@H](CCCN)NC(=O)[C@H]2CCCN2C(=O)[C@H](NC(=O)[C@@H](NC(=O)[C@@H](NC(=O)[C@H](NC(=O)CCCC(C)C)C(C)C)[C@@H](C)O)C(C)C)C(C)C)[C@@H](C)CC)[C@@H](C)OC(=O)[C@H](C(C)C)NC1=O` [Compound 84, [Phe(3,4-F2)^3]-KF] was tested, and the “TGI HT-29” value ([1]; HT-29) was 9.77E−08 Molar, the GI50 ([1]; HT-29) was 0.0627 µM and the CC50 ([1]; HT-29) was 0.152 µM. For the same compound, the GI50 ([2]; IGROV) was 0.0472 µM, the LC50 (concentration causing 50% net cell killing) ([2]; IGROV) was 0.155 µM and the “TGI IGROV” value ([2]; IGROV) was 9.40E−08 Molar. For the same compound, the “TGI A-549” value ([4]; A-549) was 3.96E−07 Molar, the GI50 ([4]; A-549) was 0.224 µM and the CC50 ([4]; A-549) was 0.848 µM. The GI50 ([5]; K-562) was 0.56 µM, the “TGI K-562” value ([5]; K-562) was 9.28E−07 Molar and the CC50 ([5]; K-562) was 1.42 µM. The GI50 ([6]; MEL-28) was 0.224 µM, the “TGI MEL-28” value ([6]; MEL-28) was 3.55E−07 Molar and the CC50 ([6]; MEL-28) was 0.561 µM. For the same compound, the GI50 ([14]; SK-BR-3) was 0.0273 µM, the LC50 ([14]; SK-BR-3) was 0.136 µM and the “TGI SK-BR-3” value ([14]; SK-BR-3) was 5.34E−08 Molar. For the same compound, the GI50 ([7]; LOVO-DOX) was 0.0323 µM, the “TGI LOVO-DOX” value ([7]; LOVO-DOX) was 6.88E−08 Molar and the CC50 ([7]; LOVO-DOX) was 0.176 µM. The GI50 ([8]; DU-145) was 0.111 µM, the LC50 (concentration causing 50% net cell kill) ([8]; DU-145) was 0.463 µM and the “TGI DU-145” value ([8]; DU-145) was 2.54E−07 Molar. The GI50 ([9]; IGROV-ET) was 0.0651 µM, the “TGI IGROV-ET” value ([9]; IGROV-ET) was 1.16E−07 Molar and the CC50 ([9]; IGROV-ET) was 0.343 µM. For the same compound, the GI50 ([10]; LOVO) was 0.0317 µM, the “TGI LOVO” value ([10]; LOVO) was 7.25E−08 Molar and the CC50 ([10]; LOVO) was 0.15 µM. The GI50 ([11]; HELA-APL) was 0.117 µM, the “TGI HELA-APL” value ([11]; HELA-APL) was 2.49E−07 Molar and the CC50 ([11]; HELA-APL) was 0.467 µM. The GI50 ([12]; PANC-1) was 0.725 µM, the “TGI PANC-1” value ([12]; PANC-1) was 1.17E−06 Molar and the CC50 ([12]; PANC-1) was 1.84 µM. The GI50 ([13]; HELA) was 0.0706 µM, the “TGI HELA” value ([13]; HELA) was 2.17E−07 Molar and the CC50 ([13]; HELA) was 0.451 µM.
With `C/C=C1\NC(=O)[C@H](Cc2ccc(O)cc2)NC(=O)[C@@H](C(C)C)NC(=O)[C@@H]([C@@H](C)CC)NC(=O)[C@H](NC(=O)[C@H](NC(=O)[C@H](CCCN)NC(=O)[C@H]2CCCN2C(=O)[C@H](NC(=O)[C@@H](NC(=O)[C@@H](NC(=O)[C@H](NC(=O)CC[C@@H](C)CC)C(C)C)[C@@H](C)O)C(C)C)C(C)C)[C@@H](C)CC)[C@@H](C)OC(=O)[C@H](C(C)C)NC1=O` [Compound 78, [Tyr^3, (4S)-MeHex^14]-KF] ({Hexanoyl(4S-Me)}-[dV]TV[dV][dP][Orn][d(aIle)][d(aThr)][d(aIle)][dV]Y[Dhb]V; ester 8-C) the “TGI HT-29” value ([1]; SRB) was 1.99E−06 Molar, the GI50 ([1]; SRB) was 1.08 µM and the CC50 ([1]; SRB) was 3.7 µM. The GI50 ([2]; SRB) was 0.877 µM, the LC50 (concentration causing 50% net cell killing) ([2]; SRB) was 3.33 µM and the “TGI IGROV” value ([2]; SRB) was 1.71E−06 Molar. The “TGI A-549” value ([4]; SRB) was 2.23E−06 Molar, the GI50 ([4]; SRB) was 1.27 µM and the CC50 ([4]; SRB) was 3.92 µM. For the same compound, the GI50 ([5]; SRB) was 1.65 µM, the “TGI K-562” value ([5]; SRB) was 3.78E−06 Molar and the CC50 ([5]; SRB) was 6.69 µM. The GI50 ([6]; SRB) was 1.12 µM, the “TGI MEL-28” value ([6]; SRB) was 2.01E−06 Molar and the CC50 ([6]; SRB) was 3.59 µM. The GI50 ([14]; SRB) was 0.266 µM, the LC50 ([14]; SRB) was 2.58 µM and the “TGI SK-BR-3” value ([14]; SRB) was 1.02E−06 Molar. The GI50 ([7]; SRB) was 0.135 µM, the “TGI LOVO-DOX” value ([7]; SRB) was 2.89E−07 Molar and the CC50 ([7]; SRB) was 0.621 µM. For the same compound, the GI50 ([8]; SRB) was 1.27 µM, the LC50 (concentration causing 50% net cell kill) ([8]; SRB) was 3.76 µM and the “TGI DU-145” value ([8]; SRB) was 2.18E−06 Molar. The GI50 ([9]; SRB) was 0.93 µM, the “TGI IGROV-ET” value ([9]; SRB) was 1.79E−06 Molar and the CC50 ([9]; SRB) was 3.42 µM. The GI50 ([10]; SRB) was 0.39 µM, the “TGI LOVO” value ([10]; SRB) was 1.16E−06 Molar and the CC50 ([10]; SRB) was 2.71 µM. The GI50 ([11]; SRB) was 0.964 µM, the “TGI HELA-APL” value ([11]; SRB) was 1.81E−06 Molar and the CC50 ([11]; SRB) was 3.42 µM. The GI50 ([12]; SRB) was 2.56 µM, the “TGI PANC-1” value ([12]; SRB) was 6.69E−06 Molar and the CC50 ([12]; SRB) was 6.69 µM. The GI50 ([13]; SRB) was 1.16 µM, the “TGI HELA” value ([13]; SRB) was 1.97E−06 Molar and the CC50 ([13]; SRB) was 3.36 µM.

— patent publication US20070117743A1, “New antitumoral compounds” (priority 2003, published 2007)
